Data published in patent publication US20110152362A1, “METHODS OF TREATING EPILEPTOGENESIS AND EPILEPSY” (priority 2004, published 2011).

Tests used:
[1] = system: rats subjected to Li-pilo induced SE; assay: Example 1: quantification of cell densities in hippocampus, thalamus and cortex after Li-pilo SE; type: in vivo, rat
Description: The effects of increasing doses of the Test Compound were studied on 3 groups of rats. The animals of the first group received 10 mg/kg of the test compound, i.p., 1 h after the onset of SE (pilo-TC10) while the animals of groups 2 and 3 received 30 and 60 mg/kg of the Test Compound (pilo-TC30 and pilo-TC60), respectively.
The control group received saline instead of pilocarpine and the Test Compound (saline-saline). […] Pilo-DZP received a second injection of 1 mg/kg DZP on the day of SE at about 10 h after the first one. Thereafter, Pilo-DZP and saline-saline rats received twice daily an equivalent volume of saline.
Quantification of cell densities was performed at 6 days after SE on 8 pilo-DZP, 8 pilo-TC10, 7 pilo-TC30, 7 pilo-TC60, and 6 saline-saline rats. […] Counts involved only cells larger than 10 μm, smaller ones being considered as glial cells.
For the comparison of the characteristics of SE in pilo-saline and pilo-test compound animals, a non-paired Student's t-test was used. The comparison between the number of rats seizing in both groups was performed by means of a Chi square test. For neuronal damage, statistical analysis between groups was performed using ANOVA followed by a Fisher's test for multiple comparisons using the Statview software (Fisher R A, 1946a, Statistical Methods for Research Workers (10th edition) Oliver & Boyd, Edinburgh; Fisher R A, 1946b, The Design of Experiments (4th edition) Oliver & Boyd, Edinburgh)

[2] = system: rats subjected to li-pilo SE; assay: Example 2: latency to and frequency of spontaneous seizures (video recording); type: in vivo, rat
Description: The effects of DZP and the 4 doses of TC on epileptogenesis were investigated by daily video recording of the animals for 10 h per day. Video recording was performed for 4 weeks during which the occurrence of the first seizure was noted as well as the total number of seizures over the whole period. Animals were then taken off the video recording system and kept for 4 additional weeks in our animal facilities before they were sacrificed after a total period of 8 weeks of epilepsy.

[3] = Blood levels in humans, oral administration of Test Compound for 7 days (toxicology studies); type: in vivo, human; details: for Cmax at 7 days: blood; for Cmax at 7 days / AUC (0-24): human
Text: In toxicology studies in humans, oral administration of Test Compound at various doses for 7 days produced the following C max's and AUC (0-24): […]

[4] = system: rats subjected to li-pilo SE; assay: Example 2: quantification of cell densities 14 days after li-pilo SE;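 note: Thionine-stained 20 µm brain sections, neurons with cell bodies above 10 µm counted, value is the mean of 12 fields per structure from three adjacent sections, both sides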
Description: All rats received lithium chloride (3 meq/kg, i.p., Sigma, St Louis, Mo., U.S.A.) and about 20 h later, all animals received also methylscopolamine bromide (1 mg/kg, s.c., Sigma) that was administered to limit the peripheral effects of the convulsant. […] The effects of increasing doses of TC were studied in 5 groups of rats. […] The control group received vehicle instead of pilocarpine and TC.
For neuronal counting, animals were deeply anesthetized with 1.8 g/kg pentobarbital (Dolethal®, Vetoquinol, Lure, France). Brains were then removed and frozen. Serial 20 μm slices were cut in a cryostat, air-dried during several days before thionine staining. […] The grid of counting was placed on a well defined area of the cerebral structure of interest and counting was carried out with a microscopic enlargement of 200- or 400-fold defined for each single cerebral structure. Cell counts were performed twice on each side of three adjacent sections for each region by a single observer unaware of the animal's treatment. The number of cells obtained in the 12 counted fields in each cerebral structure was averaged. This procedure was used to minimize the potential errors that could result from double counting leading to overestimation of cell numbers. […] Counts involved only neurons with cell bodies larger than 10 μm. Cells with small cell bodies were considered as glial cells and were not counted.
For neuronal damage and epileptogenesis, statistical analysis between groups was performed by means of a one-way analysis of variance followed by a post-hoc Dunnett or Fisher test using the Statistica software.

[5] = pilo-TC30 (TC 30 mg/kg), 14 days after li-pilo SE

NC(=O)OC[C@@H](O)c1ccccc1Cl [TC]
protective effects at lowest dose tested in Example 1 ([1]; 10 mg/kg/day): minimal or no protective effects
protection in CA3b ([1]; 60 mg/kg): significantly neuroprotective
reduction of neuronal damage, lateral thalamic nucleus ([1]; 60 mg/kg dose): 65%
reduction of neuronal damage, mediodorsal thalamic nucleus ([1]; 60 mg/kg dose): 42%
neuroprotection compared to pilo-DZP rats, ventral entorhinal cortex layers III-IV ([1]; TC60 administration): 31%
reduction of neuronal damage recorded in pilo-DZP rats, piriform cortex layer II ([1]; TC60 treatment): 41%
reduction of neuronal damage recorded in pilo-DZP rats, piriform cortex layers III-IV ([1]; TC60 treatment): 44%
worsening of cell loss compared with pilo-DZP rats, dorsal entorhinal cortex layers III-IV ([1]; pilo-TC10 rats): 28 % more damage
worsening of cell loss compared with pilo-DZP rats, ventral entorhinal cortex layers III-IV ([1]; pilo-TC10 rats): 35 % more damage
cell loss, CA1 pyramidal layer ([1]; pilo-TC30 animals): 35%
cell loss, CA1 pyramidal layer ([1]; pilo-TC60 animals): 16%
cell loss in the hilus of dentate gyrus ([1]; pilo-test compound animals (10, 30, 60 mg/kg)): 69-72%
protection in the CA3a area ([1]; test compound 10, 30, 60 mg/kg): did not afford any protection
effect on the latency to the first spontaneous seizure ([2]; 30 mg/kg): did not affect the latency to the first spontaneous seizure
latency of long latency subgroup relative to short latency ([2]; 3 higher doses (60, 90, 120 mg/kg)): 4-6 times longer
frequency of spontaneous seizures over four weeks of recording ([2]; TC60, 90 and 120 groups vs DZP and TC30 groups): lower
percentage of rats with short latencies to seizures ([2]; at 30 mg/kg (so in the source), short latency = shorter than 40 days after SE): 70%
percentage of rats with short latencies to seizures ([2]; at 90 mg/kg): 36%
percentage of rats with short latencies to seizures ([2]; at 120 mg/kg): 11%
percentage of non-epileptic rats (no seizure over 150 days post-SE) ([2]; at both highest doses, 90 and 120 mg/kg): 45%
Latency to the first spontaneous seizure ([2]; pilo-TC30, 30 mg/kg): 11.6 ± 2.5 days
Latency to the first spontaneous seizure ([2]; pilo-TC60, Long latency subgroup): 76.7 ± 15.6**°° days
Latency to the first spontaneous seizure ([2]; pilo-TC60, Short latency subgroup): 17.4 ± 5.4 days
Latency to the first spontaneous seizure ([2]; pilo-TC90, Long latency subgroup): 52.0 ± 1.0*° days
Latency to the first spontaneous seizure ([2]; pilo-TC90, Non epileptic subgroup (no seizure over 150 days post-SE)): 150**°° days
Latency to the first spontaneous seizure ([2]; pilo-TC90, Short latency subgroup): 14.8 ± 5.7 days
Latency to the first spontaneous seizure ([2]; pilo-TC120, Long latency subgroup): 84.5 ± 16.7**°° days
Latency to the first spontaneous seizure ([2]; pilo-TC120, Non epileptic subgroup (no seizure over 150 days post-SE)): 150**°° days
Latency to the first spontaneous seizure ([2]; pilo-TC120, Short latency subgroup): 13.0 days
tolerability in humans ([3]; 750 mg twice a day (1500 mg/day)): easily tolerated
Cmax at 7 days ([3]; oral 100 mg b.i.d. for 7 days): 3600 ng/mL
Cmax at 7 days ([3]; oral 250 mg b.i.d. for 7 days): 8200 ng/mL
Cmax at 7 days ([3]; oral 500 mg b.i.d. for 7 days): 17200 ng/mL
Cmax at 7 days ([3]; oral 750 mg b.i.d. for 7 days): 28200 ng/mL
AUC (0-24) ([3]; oral 100 mg b.i.d. for 7 days): 42.2 micrograms-hour/mL
AUC (0-24) ([3]; oral 250 mg b.i.d. for 7 days): 102.3 micrograms-hour/mL
AUC (0-24) ([3]; oral 500 mg b.i.d. for 7 days): 204.1 micrograms-hour/mL
AUC (0-24) ([3]; oral 750 mg b.i.d. for 7 days): 322.7 micrograms-hour/mL
protective effects at lowest dose tested in Example 2 ([4]; 30 mg/kg): some measurable protective effects
neuronal drop out, layer II of the dorsal piriform cortex ([4]; TC 60 mg/kg, 14 days after SE): 25%
damage remaining, ventral entorhinal cortex layer II ([4]; TC 90 mg/kg, 14 days after SE): 4%
damage remaining, ventral entorhinal cortex layers III/IV ([4]; TC 90 mg/kg, 14 days after SE): 17%
neuronal density in piriform cortex, % of control levels ([4]; TC 120 mg/kg, 14 days after SE): 78-96 % of control levels
neurons surviving in entorhinal cortex, dorsal and ventral ([4]; TC 120 mg/kg, 14 days after SE): 85-94%
cell loss (drop out) in the hilus of dentate gyrus ([4]; TC30, 60 and 90 groups (range also covers DZP), 14 days after SE): 61-66%
cell loss, CA1 pyramidal cell layer ([4]; TC30, 60 or 90 rats, 14 days after SE): 36-47%
cell loss, CA1 pyramidal cell layer ([4]; TC120 group, 14 days after SE): 12%
neuronal loss in the hilus of dentate gyrus ([4]; TC120 group, 14 days after SE): 53%
neuronal drop out in thalamic nuclei ([4]; TC120 rats, 14 days after SE): 4-19%
number of neurons in all amygdala nuclei, % of the control level ([4]; highest dose, 120 mg/kg, 14 days after SE): 86-99 % of the control level
number of neuronal cell bodies: Amygdala Basolateral [4, 5]: 27.3 ± 4.9**°
number of neuronal cell bodies: Amygdala Medial, dorsal anterior [4, 5]: 46.8 ± 5.0
number of neuronal cell bodies: Amygdala Medial, ventral posterior [4, 5]: 22.3 ± 1.8
number of neuronal cell bodies: Cerebral cortex Entorhinal, layer II, dorsal [4, 5]: 23.4 ± 0.6
number of neuronal cell bodies: Cerebral cortex Entorhinal, layer II, ventral [4, 5]: 22.7 ± 0.9
number of neuronal cell bodies: Cerebral cortex Entorhinal, layer III/IV, dorsal [4, 5]: 22.3 ± 0.5
number of neuronal cell bodies: Cerebral cortex Entorhinal, layer III/IV, ventral [4, 5]: 13.2 ± 1.9
number of neuronal cell bodies: Cerebral cortex Piriform, layer II, dorsal [4, 5]: 15.7 ± 2.9
number of neuronal cell bodies: Cerebral cortex Piriform, layer II, ventral [4, 5]: 7.2 ± 3.8
number of neuronal cell bodies: Cerebral cortex Piriform, layer III [4, 5]: 1.8 ± 1.8
number of neuronal cell bodies: Hippocampus CA1 area [4, 5]: 39.3 ± 44**°°
number of neuronal cell bodies: Hippocampus CA3 area [4, 5]: 35.7 ± 1.8
number of neuronal cell bodies: Hippocampus Hilus [4, 5]: 33.0 ± 3.2
